Data from the NIST ThermoML archive (doi:10.1016/j.tca.2015.09.001).
± gives the expanded uncertainty stated by the source.

Test: molar heat capacity at constant pressure
Details: 101.33 kPa, Crystal, Small sample (50 mg) DSC

c12c3c4c5c1c1c6c7c2c2c8c3c3c9c4c4c%10c5c5c1c1c6c6c%11c7c2c2c7c8c3c3c8c9c4c4c9c%10c5c5c1c1c6c6c%11c2c2c7c3c3c8c4c4c9c5c1c1c6c2c3c41 [buckminsterfullerene]
Details	molar heat capacity at constant pressure [J/K/mol]
298.15 K	535.8 ± 24
300 K	538.6 ± 24
350 K	648.1 ± 29
400 K	742 ± 33
450 K	830.1 ± 37
500 K	917.4 ± 41
